These results are taken from patent US9809602B2, “Compounds for treating viral infections” (INSTITUT PASTEUR KOREA, priority 2014, dated 2017).

Data set [1] deals with HCV genotype 1b (J4) chimeric HCVcc. Put plainly: Pan-genotypic activity test using chimeric HCVcc, genotype 1b. As to conditions: Hepatitis C virus, read-out: EC50 gt1b. Type of data set: cell-based. Here is the method:
(§1) Naïve Huh-7.5 target cells were plated at 2400 cells/well in 25 μL of culture media in 384-well plates (Greiner bio-one, μ clear black). After overnight incubation, compounds serially diluted in 10 μL of cell culture media were added. After 2 h compound treatment, cells were inoculated with 40 μL of genotype 1/2 chimeric cell culture derived HCV (HCVcc) which express structural proteins of an HCV genotype 1a isolate (TN accession number EF621489) and non-structural proteins of HCV genotype 2a (JFH-1) with nano-luciferase reporter. At 72 h post infection, nano-luciferase activity (Nano-Glo™, Promega) and cellular ATP (Cell titer-Glo™, Promega) were measured as a marker for HCV replication and cytotoxicity, respectively. EC50 and CC50 were calculated by non-linear regression analyzing using GraphPad Prism (GraphPad Software).
(§2) In order to evaluate cross-genotypic antiviral activity against various HCV genotypes, Formulas I and II were tested using chimeric HCVcc as described above. HCV chimeras expressing the structural proteins of HCV genotype 1b (J4), 2a (J6), 2b (J8), 3a (S52), 4a (ED43), 5a (SA13), 6a (HK6a) or 7a (QC69), followed by HCV genotype 2a (JFH-1) derived non-structural proteins responsible for viral RNA replication and Renilla luciferase reporter gene were used to monitor viral replication.

Data set [2] deals with HCV genotype 2a (J6) chimeric HCVcc. Put plainly: Pan-genotypic activity test using chimeric HCVcc, genotype 2a. Type of data set: cell-based. As to conditions: Hepatitis C virus, read-out: EC50 gt2a. Here is the method: as §1, §2
Data set [3] concerns HCV genotype 2b (J8) chimeric HCVcc. Put plainly: Pan-genotypic activity test using chimeric HCVcc, genotype 2b. In kind it is cell-based. The settings on record: Hepatitis C virus, read-out: EC50 gt2b. The procedure:
as §1, §2

Data set [4] has as its system HCV genotype 3a (S52) chimeric HCVcc. Put plainly: Pan-genotypic activity test using chimeric HCVcc, genotype 3a. The settings on record: Hepatitis C virus, read-out: EC50 gt3a. In kind it is cell-based. The procedure: as §1, §2
The subject of data set [5] is HCV genotype 4a (ED43) chimeric HCVcc. Put plainly: Pan-genotypic activity test using chimeric HCVcc, genotype 4a. In kind it is cell-based. The settings on record: Hepatitis C virus, read-out: EC50 gt4a. The procedure:
as §1, §2

Data set [6] deals with HCV genotype 5a (SA13) chimeric HCVcc. Put plainly: Pan-genotypic activity test using chimeric HCVcc, genotype 5a. In kind it is cell-based. The settings on record: Hepatitis C virus, read-out: EC50 gt5a. The procedure: as §1, §2
For data set [7], the system named is HCV genotype 6a (HK6a) chimeric HCVcc. Put plainly: Pan-genotypic activity test using chimeric HCVcc, genotype 6a. Type of data set: cell-based. The settings on record: Hepatitis C virus, read-out: EC50 gt6a. Here is the method: as §1, §2
Data set [8] has as its system HCV genotype 7a (QC69) chimeric HCVcc. Put plainly: Pan-genotypic activity test using chimeric HCVcc, genotype 7a. In kind it is cell-based. The settings on record: Hepatitis C virus, read-out: EC50 gt7a. Here is the method: as §1, §2
The subject of data set [9] is HCV genotype 1a chimeric HCVcc. Put plainly: Pan-genotypic activity test using chimeric HCVcc, genotype 1a. The settings on record: Hepatitis C virus, read-out: EC50 gt1a. In kind it is cell-based.
The subject of data set [10] is genotype 1/2 chimeric cell culture derived HCV (HCVcc). Put plainly: Genotype 1/2 chimeric HCVcc assay (nano-luciferase, HCV replication). In kind it is cell-based. The settings on record: Hepatitis C virus, Huh7.5, 72 h. In outline: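 EC50 (replication, nano-luciferase) and CC50 (viability, cellular ATP) were determined by non-linear regression 72 h after infection with a reporter HCVcc chimera carrying genotype 1a structural and 2a JFH-1 non-structural proteins. Compound was applied to Huh-7.5 cells 2 h before inoculation.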

Take `CCOC(=O)c1c(NC(=O)NCc2c(C(F)(F)F)sc3c2CCN(CCN(C)C)C3)sc2c1CCCC2` [No. 316]: the EC50 was below 0.1 µM in [1]; below 0.1 µM in data set [2]; below 0.1 µM in [3]; below 0.1 µM in data set [4]; below 0.1 µM in [5]; 1 to 10 µM in [6]. Also, the results for the concentration for a half-maximal effect (EC50) in data set [7], in [8] and in [9] were above 10 µM, below 0.1 µM and below 0.1 µM, respectively.

Consider `CCN1CCc2c(sc(-n3cccc3)c2CNC(=O)Nc2sc3c(c2C(=O)OC(C)(C)C)CCCC3)C1` [No. 14], for which the concentration for a half-maximal effect (EC50) is 0.1 to 1 µM in [1]; 0.1 to 1 µM in data set [2]; below 0.1 µM in data set [3]; 0.1 to 1 µM in data set [4]; 0.1 to 1 µM in data set [5]; 1 to 10 µM in [6]. Also, the EC50 is above 10 µM in data set [7], below 0.1 µM in [8] and 0.1 to 1 µM in [9].

Regarding `O=C(NCCCN1CCC(N2CCCCC2)CC1)c1ccc(Oc2ccccc2)cc1` [No. 1013], the EC50 in data set [1] is above 10 µM; in data set [2], 1 to 10 µM; in [3] it was 0.1 to 1 µM; in data set [4], above 10 µM; in data set [5], above 10 µM; in [6] it was above 10 µM. Further, the EC50 in data set [7], in [8] and in data set [9] was above 10 µM throughout.

With `CCOC(=O)c1c(NC(=O)NCc2c(-n3cccc3)sc3c2CCN(CC(C)C)C3)sc2c1CCCC2` [No. 27], the EC50 in data set [1] was 0.1 to 1 µM; in data set [2], 0.1 to 1 µM; in data set [3], 0.1 to 1 µM; in data set [4] it was 0.1 to 1 µM; in [5], 0.1 to 1 µM; in [6], 1 to 10 µM. In addition, the EC50 was above 10 µM in [7], 0.1 to 1 µM in data set [8] and 0.1 to 1 µM in [9].

In the case of `O=C(NCCCN1CCC(N2CCCCC2)CC1)c1ccc(-c2ccc(C(F)(F)F)cc2)cc1` [No. 1019], the EC50 in data set [1] was above 10 µM; in [2], 1 to 10 µM; in data set [3] it was 1 to 10 µM; in [4], above 10 µM; in data set [5], above 10 µM; in data set [6], above 10 µM. Further, the EC50 in [7], in [8] and in [9] was above 10 µM in each case.

As to `CCN1CCc2c(sc(-n3cccc3)c2CNC(=O)Nc2sccc2C(=O)OC)C1` [Compound 11], the melting point was determined as 201.8 °C. In data set [10], the half-maximal effective concentration (EC50) lay in the range of 1 to 10 µM.

For `CCOC(=O)c1c(NC(=O)NCc2c(-n3cccc3)sc3c2CCN(S(C)(=O)=O)C3)sc2c1CCCC2` [No. 21], the EC50 in [1] was below 0.1 µM; in data set [2], below 0.1 µM; in data set [4], below 0.1 µM; in data set [5], below 0.1 µM; in data set [6], 1 to 10 µM; in [7], above 10 µM. The 50% effective concentration (EC50) in [8] and in [9] was below 0.1 µM each time.

The compound `CCOC(=O)c1c(NC(=O)NCc2c(-n3cccc3)sc3c2CCN(CC)C3)sc(C)c1C` [Compound 12] displayed a melting point of 196.9 °C. Also, the EC50 in data set [10] fell in the range of 0.1 to 1 µM.

As for `CC(C)OC(=O)c1c(NC(=O)NCc2c(C(F)(F)F)sc3c2CCNC3)sc2c1CCCC2` [No. 167], the EC50 in data set [1] is below 0.1 µM; in data set [2], below 0.1 µM; in data set [3], below 0.1 µM; in [4], below 0.1 µM; in data set [5], below 0.1 µM; in data set [6], 1 to 10 µM. Also, the EC50 in data set [7] was above 10 µM; in [8], below 0.1 µM; in [9], below 0.1 µM.

For the compound `CC(C)(C)OC(=O)c1c(NC(=O)NCc2c(C(F)(F)F)sc3c2CCNC3)sc2c1CCCC2` [No. 121], the EC50 in data set [1] is below 0.1 µM; in data set [2], below 0.1 µM; in data set [3], below 0.1 µM; in [4], below 0.1 µM; in [5] it was below 0.1 µM; in data set [6], 1 to 10 µM. In addition, the EC50 in data set [7] is above 10 µM; in [8], below 0.1 µM; in data set [9], below 0.1 µM.

As for `CCOC(=O)c1c(NC(=O)NCc2c(-n3cccc3)sc3c2CCNC3)sc2c1CCCC2` [No. 19], the EC50 in [1] lay within 0.1 to 1 µM; in data set [2], 0.1 to 1 µM; in data set [3], 0.1 to 1 µM; in data set [4], 0.1 to 1 µM; in [5] it was 0.1 to 1 µM; in [6], 1 to 10 µM. The EC50 in [7] is above 10 µM; in data set [8] it was 0.1 to 1 µM; in data set [9], 0.1 to 1 µM.

As usually defined, the EC50 is the concentration that produces a half-maximal response. As usually defined, the melting point is the temperature of the solid-liquid transition.
